Reference: ChEMBL document CHEMBL1821565, “I. Novel HCV NS5B polymerase inhibitors: discovery of indole 2-carboxylic acids with C3-heterocycles” (Bioorg Med Chem Lett, 2011)

Tests used:
[1] = Inhibition of HCV NS5B after 150 mins by [33P]-CTP incorporation assay; set-up: species or system Hepacivirus hominis
Hepatitis C virus = test: Antiviral activity against HCV subtype 1b Con1 reduction in replicon RNA level using RT-PCR by cell based replicon assay; format: functional, organism-based, Hepacivirus hominis
[2] = Hepatitis C virus, Con1, read-out: EC50

Compound | IC50 [1] | EC50 (Hepatitis C virus; [2]) | EC50 (Hepatitis C virus)
O=C(O)c1c(-c2ccc(F)cc2F)c2cc(Cl)ccc2n1Cc1cccc(Cl)c1 | 1.1 µM | > 25 µM | –
O=C(O)c1c(-c2cccnc2F)c2cc(Cl)ccc2n1Cc1ccc(F)cc1F | 0.3 µM | > 25 µM | –
O=C(O)c1c(-n2ccccc2=O)c2cc(Cl)ccc2n1Cc1ccccc1F | 0.15 µM | 19 µM | –
O=C(O)c1c(-c2ccc[nH]c2=O)c2cc(Cl)ccc2n1Cc1ccc(F)cc1F | 0.035 µM | 10 µM | –
O=C(O)c1c(-c2c[nH]c(=O)[nH]c2=O)c2cc(Cl)ccc2n1Cc1ccc(F)cc1F | 0.047 µM | 10 µM | –
Nc1cc(Cn2c(C(=O)O)c(-c3ccc[nH]c3=O)c3cc(Cl)ccc32)ccn1 | 0.053 µM | 4.8 µM | –
Nc1cc(Cn2c(C(=O)O)c(-c3c[nH]c(=O)[nH]c3=O)c3cc(Cl)ccc32)ccn1 | 0.031 µM | 2 µM | –
Nc1cc(Cn2c(C(=O)O)c(N3CCNS3(=O)=O)c3cc(Cl)ccc32)ccn1 | > 20 µM | – | Not Active
Nc1cc(Cn2c(C(=O)O)c(N3CCCNS3(=O)=O)c3cc(Cl)ccc32)ccn1 | > 20 µM | – | Not Active
O=C(O)c1c(-c2ccc[nH]c2=O)c2cc(Br)ccc2n1Cc1ccc(F)cc1F | 0.043 µM | 7.6 µM | –
COc1ccc2c(c1)c(-c1ccc[nH]c1=O)c(C(=O)O)n2Cc1ccc(F)cc1F | 0.043 µM | 11 µM | –
CCOc1ccc2c(c1)c(-c1ccc[nH]c1=O)c(C(=O)O)n2Cc1ccc(F)cc1F | 0.12 µM | 20 µM | –
O=C(O)c1c(-c2ccc[nH]c2=O)c2cc(C3CC3)ccc2n1Cc1ccc(F)cc1F | 0.56 µM | > 50 µM | –
Cc1ccc2c(c1)c(-c1ccc[nH]c1=O)c(C(=O)O)n2Cc1ccc(F)cc1F | 0.046 µM | – | –
O=C(O)c1c(-c2ccc[nH]c2=O)c2cc(C(F)(F)F)ccc2n1Cc1ccc(F)cc1F | 0.025 µM | 4.8 µM | –
NC(=O)Nc1c(C(=O)O)n(Cc2cc(F)ccc2F)c2ccc(C(F)(F)F)cc12 | 0.35 µM | > 10 µM | –
O=C(O)c1c(-n2c(=O)[nH]c3nccnc3c2=O)c2cc(C(F)(F)F)ccc2n1Cc1cc(F)ccc1F | 0.27 µM | > 10 µM | –
O=C(O)c1c(-n2c(=O)[nH]c3cscc3c2=O)c2cc(C(F)(F)F)ccc2n1Cc1ccc(F)cc1F | 0.059 µM | 12 µM | –
Nc1cc(Cn2c(C(=O)O)c(-n3c(=O)[nH]c4cscc4c3=O)c3cc(C(F)(F)F)ccc32)ccn1 | 0.032 µM | 1.4 µM | –
Nc1cc(Cn2c(C(=O)O)c(-c3ccc[nH]c3=O)c3cc(C(F)(F)F)ccc32)ccn1 | 0.017 µM | 0.3 µM | –
O=C(O)c1c(-c2ccccc2F)c2cc(Cl)ccc2n1Cc1ccccc1 | – | > 100 µM | –
O=C(O)c1[nH]c2ccc(Cl)cc2c1-c1ccccc1F | 7.3 µM | > 25 µM | –
Cn1c(C(=O)O)c(-c2ccccc2F)c2cc(Cl)ccc21 | 1.3 µM | > 25 µM | –

Compound | IC50 [1] | EC50 (Hepatitis C virus; [2]) | EC50 (Hepatitis C virus)
CC(=O)n1c(C(=O)O)c(-c2ccccc2F)c2cc(Cl)ccc21 | 8.1 µM | > 25 µM | –
O=C(O)c1c(-c2ccccc2F)c2cc(Cl)ccc2n1C(=O)c1ccccc1 | 7.8 µM | > 25 µM | –
O=C(O)c1c(-c2ccccc2F)c2cc(Cl)ccc2n1Cc1ccc2ccccc2c1 | 4.4 µM | > 25 µM | –
Cc1cccc(Cn2c(C(=O)O)c(-c3ccccc3F)c3cc(Cl)ccc32)c1 | 2.5 µM | > 25 µM | –
O=C(O)c1c(-c2ccccc2F)c2cc(Cl)ccc2n1Cc1cccc(C(F)(F)F)c1 | > 44 µM | > 25 µM | –
O=C(O)c1c(-c2ccccc2F)c2cc(Cl)ccc2n1Cc1cccc(OC(F)(F)F)c1 | 1.8 µM | > 25 µM | –
O=C(O)c1c(-c2ccccc2F)c2cc(Cl)ccc2n1Cc1cc(F)ccc1F | 0.3 µM | > 25 µM | –
Nc1ccccc1Cn1c(C(=O)O)c(-c2ccccc2F)c2cc(Cl)ccc21 | 0.6 µM | > 25 µM | –
Nc1cccc(Cn2c(C(=O)O)c(-c3ccccc3F)c3cc(Cl)ccc32)c1 | 0.2 µM | > 25 µM | –
Cc1ccc(Cn2c(C(=O)O)c(-c3ccccc3F)c3cc(Cl)ccc32)cc1N | 1.3 µM | > 25 µM | –
CC(=O)Nc1cccc(Cn2c(C(=O)O)c(-c3ccccc3F)c3cc(Cl)ccc32)c1 | 0.6 µM | > 25 µM | –
O=C(O)c1c(-c2ccccc2F)c2cc(Cl)ccc2n1Cc1cccc(NCc2ccccc2)c1 | 0.7 µM | > 25 µM | –
O=C(O)c1c(-c2ccccc2F)c2cc(Cl)ccc2n1Cc1cccnc1 | 1.3 µM | > 25 µM | –
O=C(O)c1c(-c2ccccc2F)c2cc(Cl)ccc2n1Cc1ccncc1 | 1.2 µM | > 25 µM | –
O=C(O)c1cc2cc(Cl)ccc2n1Cc1ccccc1F | 17 µM | > 25 µM | –
COc1ccccc1-c1c(C(=O)O)n(Cc2ccccc2F)c2ccc(Cl)cc12 | 10 µM | > 25 µM | –
O=C(O)c1c(-c2ccccc2O)c2cc(Cl)ccc2n1Cc1cc(F)ccc1F | 1.4 µM | > 25 µM | –
O=C(O)c1c(-c2ccccc2)c2cc(Cl)ccc2n1Cc1cccc(Cl)c1 | 4.2 µM | > 25 µM | –
O=C(O)c1c(-c2cccc(Cl)c2)c2cc(Cl)ccc2n1Cc1cccc(Cl)c1 | 33 µM | > 25 µM | –
N#Cc1cccc(-c2c(C(=O)O)n(Cc3cccc(Cl)c3)c3ccc(Cl)cc23)c1 | 30 µM | > 25 µM | –
O=C(O)c1c(-c2ccc3c(c2)OCO3)c2cc(Cl)ccc2n1Cc1cccc(Cl)c1 | 29 µM | > 25 µM | –
O=C(O)c1c(-c2ccc(F)cc2)c2cc(Cl)ccc2n1Cc1cccc(Cl)c1 | > 48 µM | > 25 µM | –
O=C(O)c1c(-c2ccc(F)c(F)c2)c2cc(Cl)ccc2n1Cc1cccc(Cl)c1 | > 46 µM | > 25 µM | –
